Test systems include HOP-62 NSCLC; SW-620 colon; EKVX NSCLC; SR leukemia; NCI-H23 lung; NCI-H522 lung; MOLT-4 leukemia; MDA-MB-435.
Test in all cases: NCI-60 cell line screen, 48 h

Each structure is given as a SMILES string.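 How tested: cells in 96-well plates exposed to compound for 48 hours at five concentrations. GI50 marks 50% less growth. TGI: total growth inhibition.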

For the compound `Cc1cc(O)c(O)c(Oc2cc(C)cc(O)c2O)c1`, the TGI with HOP-62 NSCLC was greater than 100 µM; in the assay on SW-620 colon, greater than 100 µM; in the assay with EKVX NSCLC, 36.8 µM; with SR leukemia it was 43.5 µM; with NCI-H23 lung, greater than 100 µM; with NCI-H522 lung it was 34.8 µM. Moreover, the TGI in the assay on MOLT-4 leukemia and in the assay with MDA-MB-435 was greater than 100 µM each time.

Regarding `Cc1csc(-c2ccc3c(c2)COC3(CCCN(C)C)c2ccc(F)cc2)c1` (stereo not given), the GI50 in the assay with HOP-62 NSCLC is 1.67 µM; in the assay with SW-620 colon, 1.8 µM; in the assay on EKVX NSCLC it was 1.77 µM; in the assay with NCI-H23 lung, 1.83 µM; in the assay on NCI-H522 lung, 2.06 µM; with MOLT-4 leukemia, 2.55 µM. Besides, the GI50 in the assay on MDA-MB-435 was 1.69 µM. Further, the TGI turned out to be 3.42 µM in the assay with HOP-62 NSCLC; 3.51 µM with SW-620 colon; 3.48 µM in the assay with EKVX NSCLC; 3.44 µM with NCI-H23 lung; 4.31 µM with NCI-H522 lung; 6.69 µM in the assay on MOLT-4 leukemia. In the assay on MDA-MB-435, the TGI amounted to 3.08 µM.

In the case of `CCc1cccc(CC)c1NC(=O)c1ccn2c1CCc1cnc(Nc3ccc(N4CCN(C)CC4)cc3OC)nc1-2`, the GI50 in the assay with SW-620 colon is 1.11 µM; in the assay with EKVX NSCLC, 3.02 µM; with NCI-H23 lung, 4.48 µM; in the assay on NCI-H522 lung, 1.81 µM; with MDA-MB-435, 2.51 µM. Also, the TGI with SW-620 colon was 5.94 µM; with EKVX NSCLC, 19.6 µM; in the assay on NCI-H23 lung, 27 µM; with NCI-H522 lung it was 4.32 µM; in the assay with MDA-MB-435 it was 11.7 µM.

As to `C=CCCC(O)c1ccc(CCCCCCCCCCC)o1` (stereo not given), the GI50 is 17.3 µM with HOP-62 NSCLC; 17 µM in the assay on SW-620 colon; 18.2 µM with EKVX NSCLC; 19.3 µM with NCI-H23 lung; 17 µM in the assay on NCI-H522 lung; 29.9 µM with MOLT-4 leukemia. In addition, the GI50 with MDA-MB-435 is 16.7 µM. The TGI is 32.2 µM in the assay with HOP-62 NSCLC; 32.2 µM in the assay on SW-620 colon; 32.9 µM in the assay on EKVX NSCLC; 40.6 µM with NCI-H23 lung; 32.8 µM in the assay with NCI-H522 lung; greater than 100 µM in the assay with MOLT-4 leukemia. The TGI in the assay on MDA-MB-435 was 35.3 µM.

As for `COc1ccc(C(=O)c2cc(OC)c(OC)c(OC)c2)cc1/C=C/C(=O)c1ccc2c(c1)OCO2`, the GI50 with HOP-62 NSCLC is 4.4 µM; with SW-620 colon, 0.396 µM; in the assay with NCI-H23 lung, 2.67 µM; in the assay with MOLT-4 leukemia, 1.61 µM. The TGI is 19.5 µM in the assay on HOP-62 NSCLC, 3.77 µM in the assay on SW-620 colon, 8.22 µM in the assay on NCI-H23 lung and greater than 100 µM in the assay on MOLT-4 leukemia.

On to `O=C1c2ccccc2CCC1(Br)Br`, for which the GI50 was 6.32 µM in the assay on HOP-62 NSCLC; 0.384 µM with SW-620 colon; 0.67 µM with SR leukemia; 1.99 µM with NCI-H23 lung; 0.293 µM with NCI-H522 lung; 0.631 µM with MOLT-4 leukemia. Further, the GI50 in the assay with MDA-MB-435 was 2.34 µM. The TGI with HOP-62 NSCLC came to 17.8 µM; in the assay with SW-620 colon, 1.53 µM; with SR leukemia it was 3.9 µM; in the assay with NCI-H23 lung it was 4.9 µM; in the assay on NCI-H522 lung it was 0.793 µM; with MOLT-4 leukemia it was 3.94 µM. Moreover, the TGI in the assay with MDA-MB-435 came out at 6.53 µM.

With `COCO[C@@H]1CC2C=Nc3cc(OCc4ccccc4)c(OC)cc3C(=O)N2C1` (stereo not given in full), the GI50 with HOP-62 NSCLC was 0.351 µM; with SW-620 colon, 0.482 µM; in the assay with EKVX NSCLC, 1.09 µM; in the assay with NCI-H23 lung, 0.672 µM; in the assay with NCI-H522 lung, 0.152 µM; in the assay with MOLT-4 leukemia, 0.175 µM. Further, in the assay with MDA-MB-435, the GI50 is 0.455 µM. Also, the TGI was 2.8 µM in the assay with HOP-62 NSCLC; 8.61 µM in the assay on SW-620 colon; 4.85 µM in the assay on EKVX NSCLC; 1.97 µM in the assay on NCI-H23 lung; 0.64 µM in the assay on NCI-H522 lung; 1.86 µM in the assay with MDA-MB-435.

Turning to `Cc1ccc(C(CC(=O)c2ccccc2)C(C(=O)c2ccccc2)C(c2ccc(C)cc2)C2C(=O)NC(=S)NC2=O)cc1` (stereo not given), the GI50 in the assay with HOP-62 NSCLC was greater than 50 µM; in the assay on SW-620 colon it was 19.4 µM; in the assay on EKVX NSCLC, 19.5 µM; in the assay on NCI-H23 lung, 15.1 µM; with NCI-H522 lung, 7.87 µM; with MOLT-4 leukemia it was 8.85 µM. Further, in the assay with MDA-MB-435, the GI50 is 14.6 µM. The TGI in the assay on HOP-62 NSCLC is greater than 50 µM; with SW-620 colon, greater than 50 µM; in the assay on EKVX NSCLC it was greater than 50 µM; in the assay on NCI-H23 lung, greater than 50 µM; in the assay with NCI-H522 lung it was 30.2 µM; with MOLT-4 leukemia it was greater than 50 µM. The same compound showed a TGI with MDA-MB-435 greater than 50 µM.

As for `CNc1ccc(C(=O)CC(O)CCC(C)C2OC(=O)CC(O)CC(=O)CC(O)CC(O)CC(O)CC(O)CC3(O)CC(O)C(C(=O)NCCc4ccccn4)C(CC(OC4OC(C)C(O)C(N)C4O)/C=C/C=C/C=C/C=C\C=C/C=C/C=C/C2C)O3)cc1` (stereo not given), the GI50 in the assay with SW-620 colon was greater than 41.5 µM; in the assay with EKVX NSCLC, 0.134 µM; in the assay on NCI-H23 lung, 0.118 µM; with NCI-H522 lung it was 4.21 µM; in the assay with MOLT-4 leukemia, 0.207 µM; with MDA-MB-435, 0.128 µM. Moreover, the TGI in the assay with SW-620 colon is greater than 50 µM; in the assay on EKVX NSCLC it was 0.49 µM; in the assay with NCI-H23 lung, 0.271 µM; in the assay on NCI-H522 lung, greater than 50 µM; in the assay on MOLT-4 leukemia, greater than 50 µM; in the assay on MDA-MB-435, 0.406 µM.

With `COc1cc([N+](=O)[O-])c(OC)cc1-c1nc2n(c1/C(N)=N/C(=N)N)CCS2`, the GI50 with HOP-62 NSCLC is 6.23 µM; with SW-620 colon, greater than 100 µM; with EKVX NSCLC, 40.3 µM; in the assay with NCI-H23 lung it was 23.3 µM; in the assay with NCI-H522 lung it was 47.7 µM; in the assay with MOLT-4 leukemia, greater than 100 µM. Moreover, the GI50 in the assay on MDA-MB-435 was greater than 100 µM. Besides, the TGI with HOP-62 NSCLC was 50.6 µM; in the assay on SW-620 colon it was greater than 100 µM; with EKVX NSCLC, greater than 100 µM; in the assay on NCI-H23 lung, 87.1 µM; with NCI-H522 lung it was greater than 100 µM; in the assay with MOLT-4 leukemia it was greater than 100 µM. In the assay on MDA-MB-435, this compound gave a TGI greater than 100 µM.

For `O=C1CCCC(=O)C1C(=O)c1ccc(C(F)(F)F)cc1[N+](=O)[O-]`, the GI50 in the assay with HOP-62 NSCLC, with SW-620 colon, with SR leukemia, in the assay with NCI-H23 lung, in the assay on NCI-H522 lung and with MOLT-4 leukemia was greater than 100 µM each time. In addition, the GI50 in the assay on MDA-MB-435 is greater than 100 µM. Moreover, the TGI in the assay on HOP-62 NSCLC, with SW-620 colon, in the assay with SR leukemia, in the assay with NCI-H23 lung, with NCI-H522 lung and with MOLT-4 leukemia was greater than 100 µM throughout. In the assay with MDA-MB-435, this compound had a TGI greater than 100 µM.
